Literature values as cited in patent publication US20050222211A1, “S(-)rabeprazole compositions and methods” (Sepracor Inc., priority 1998, published 2005).

Tests used:
CYP 3A = conditions: compared with omeprazole
CYP 1A1 mRNA = conditions: compared with pantoprazole
CYP 2C19 = CYP 2C19 (Homo sapiens, UniProt P33261); conditions: compared with omeprazole
gastric acid secretion = conditions: humans
[1] = humans; depending on dose

Chain of CYP 2C19 (P33261 whole entry, species assumed): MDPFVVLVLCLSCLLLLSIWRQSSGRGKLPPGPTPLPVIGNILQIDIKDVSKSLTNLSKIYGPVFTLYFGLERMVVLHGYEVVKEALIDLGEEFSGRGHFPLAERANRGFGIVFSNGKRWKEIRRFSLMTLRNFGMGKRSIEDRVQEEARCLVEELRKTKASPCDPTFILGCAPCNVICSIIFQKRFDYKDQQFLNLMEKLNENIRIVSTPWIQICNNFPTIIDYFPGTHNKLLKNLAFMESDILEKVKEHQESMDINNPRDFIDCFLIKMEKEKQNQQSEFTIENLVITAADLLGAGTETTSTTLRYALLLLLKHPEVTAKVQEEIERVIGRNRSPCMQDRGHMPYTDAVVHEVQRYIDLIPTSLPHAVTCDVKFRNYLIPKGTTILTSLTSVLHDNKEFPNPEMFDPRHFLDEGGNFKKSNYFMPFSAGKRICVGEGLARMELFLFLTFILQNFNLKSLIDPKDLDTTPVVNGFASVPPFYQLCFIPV

COCCCOc1ccnc(C[S+]([O-])c2nc3ccccc3[nH]2)c1C (racemic) [racemic rabeprazole]
effects on hepatic drug metabolizing enzyme systems such as CYP 3A (CYP 3A): comparable to omeprazole
induction of CYP 1A1 mRNA (CYP 1A1 mRNA): more potent inducer of CYP 1A1 mRNA than is pantoprazole
inhibition of CYP 2C19 (CYP 2C19): less inhibitory of CYP 2C19 than is omeprazole
duration of the acid inhibitory effect (gastric acid secretion): about 24 hours
serum half-life [1]: 0.833 to 1.5 h
